In ChEMBL document CHEMBL5316290, “Targeted Protein Degradation Induced by HEMTACs Based on HSP90” (J Med Chem, 2023):
Active and inactive are the calls of the source. The rule behind the calls is not given here.

Assays:
B16-F10 [1] = assay: Anticancer activity against mouse B16-F10 cells implanted in C57BL/6J mouse assessed as increase in necrosis at 20 mg/kg, ip administered once daily for 2 weeks and measured every 2 days by H and E staining based analysis; format: functional, organism-based
B16-F10 [2] = assay: Induction of cell cycle arrest in mouse B16-F10 cells assessed as accumulation of cells at S phase at 250 nM incubated for 24 hrs by RNase/PI staining based flow cytometry analysis (reference value: 12.45%); format: functional
B16-F10 [3] = assay: Induction of cell cycle arrest in mouse B16-F10 cells assessed as accumulation of cells at G1 phase at 125 nM incubated for 24 hrs by RNase/PI staining based flow cytometry analysis (reference value: 68.89%); format: functional
B16-F10 [4] = assay: Inhibition of colony formation in mouse B16-F10 cells at 0.25 to 1 uM incubated for 7 days with media replacement for every 2 days by crystal violet staining based analysis; format: functional, cell-based; settings: dose 0.25-1 µM, time 7.0 day
[5] = Toxicity in C57BL/6J mouse implanted with mouse B16-F10 cells assessed as morphological changes in lung at 20 mg/kg, ip administered once daily for 2 weeks and measured every 2 days by H and E staining based analysis; format: organism-based; settings: in vivo, 336 h
B16-F10 [6] = assay: Cytotoxicity against mouse B16-F10 cells assessed as inhibition of cell growth incubated for 72 hrs by CCK-8 assay; format: functional, cell-based; settings: B16-F10, 72 h
[7] = biological target: T1, HSP90/Cyclin-dependent kinase 4 (Mus musculus) (UniProt P30285+P07901+P11499); assay: HEMTAC activity at HSP90/CDK4 in mouse B16-F10 cells assessed as induction of CDK4 degradation at 0.5 uM pretreated with proteasome inhibitor, MG132 for 2 hrs followed by compound addition and measured after 24 hrs by Western blot analysis; format: cell-based
B16-F10 [8] = assay: Anticancer activity against mouse B16-F10 cells implanted in C57BL/6J mouse assessed as reduction in CDK4/6 positive cells in tumor at 20 mg/kg, ip administered once daily for 2 weeks and measured every 2 days by immunohistochemical analysis; format: functional, organism-based
B16-F10 [9] = assay: Induction of apoptosis in mouse B16-F10 cells assessed as early apoptotic cells at 250 nM incubated for 48 hrs by Annexin V-FITC/PI staining based flow cytometry analysis (reference value: 3.42%); format: functional
[10] = Toxicity in C57BL/6J mouse implanted with mouse B16-F10 cells at 20 to 40 mg/kg, ip administered once daily for 2 weeks and measured every 2 days; format: organism-based; settings: in vivo, 336 h, dose 20-40 mg/kg
B16-F10 [11] = assay: Induction of cell cycle arrest in mouse B16-F10 cells assessed as accumulation of cells at G2 phase at 125 nM incubated for 24 hrs by RNase/PI staining based flow cytometry analysis (reference value: 16.13%); format: functional
[12] = biological target: T2, HSP90/Cyclin-dependent kinase 6 (Mus musculus) (UniProt P07901+Q64261+P11499); assay: HEMTAC activity at HSP90/CDK6 in mouse B16-F10 cells assessed as induction of […] degradation at 0.5 uM measured after 12 hrs by Western blot analysis; format: cell-based
B16-F10 [13] = assay: Induction of apoptosis in mouse B16-F10 cells assessed as live cells at 250 nM incubated for 48 hrs by Annexin V-FITC/PI staining based flow cytometry analysis (reference value: 92.85 %); format: functional
[14] = biological target: HSP90/Cyclin-dependent kinase 4 (Mus musculus, UniProt P07901+P11499+P30285); assay: HEMTAC activity at HSP90/CDK4 in mouse B16-F10 cells assessed as induction of CDK4 degradation incubated for 24 hrs by Western blot analysis; format: cell-based
[15] = biological target: T1, HSP90/Cyclin-dependent kinase 4 (Mus musculus); assay: HEMTAC activity at HSP90/CDK4 in mouse B16-F10 cells assessed as induction of CDK4 degradation by measuring maximal degradation incubated for 24 hrs by Western blot analysis relative to control; format: cell-based
B16-F10 [16] = assay: Inhibition of cell migration in mouse B16-F10 cells at 0.25 to 1 uM by wound healing assay; format: functional, cell-based; settings: dose 0.25-1 µM
B16-F10 [17] = assay: Induction of apoptosis in mouse B16-F10 cells assessed as late apoptotic cells at 250 nM incubated for 48 hrs by Annexin V-FITC/PI staining based flow cytometry analysis (reference value: 1.97%); format: functional
[18] = biological target: T2, HSP90/Cyclin-dependent kinase 6 (Mus musculus); assay: HEMTAC activity at HSP90/CDK6 in mouse B16-F10 cells assessed as induction of […] degradation at 0.5 uM pretreated with proteasome inhibitor, MG132 for 2 hrs followed by compound addition and measured after 24 hrs by Western blot analysis; format: cell-based
B16-F10 [19] = assay: Induction of apoptosis in mouse B16-F10 cells assessed as late apoptotic cells at 125 nM incubated for 48 hrs by Annexin V-FITC/PI staining based flow cytometry analysis (reference value: 1.97%); format: functional
B16-F10 [20] = assay: Induction of apoptosis in mouse B16-F10 cells assessed as dead cells at 125 nM incubated for 48 hrs by Annexin V-FITC/PI staining based flow cytometry analysis (reference value: 1.75%); format: functional
B16-F10 [21] = assay: Anticancer activity against mouse B16-F10 cells implanted in C57BL/6J mouse assessed as reduction in tumor growth at 20 to 40 mg/kg, ip administered once daily for 2 weeks and measured every 2 days by vernier caliper method; format: functional, organism-based; settings: dose 20-40 mg/kg
B16-F10 [22] = assay: Induction of cell cycle arrest in mouse B16-F10 cells assessed as accumulation of cells at G1 phase at 250 nM incubated for 24 hrs by RNase/PI staining based flow cytometry analysis (reference value: 68.89%); format: functional
[23] = biological target: T2, HSP90/Cyclin-dependent kinase 6 (Mus musculus); assay: HEMTAC activity at HSP90/CDK6 in mouse B16-F10 cells assessed as induction of […] degradation by measuring maximal degradation incubated for 24 hrs by Western blot analysis relative to control; format: cell-based
B16-F10 [24] = assay: Induction of cell cycle arrest in mouse B16-F10 cells assessed as accumulation of cells at G2 phase at 250 nM incubated for 24 hrs by RNase/PI staining based flow cytometry analysis (reference value: 16.13%); format: functional
MDA-MB-231 = assay: Cytotoxicity against human MDA-MB-231 cells assessed as inhibition of cell growth incubated for 72 hrs by CCK-8 assay; format: functional, cell-based; settings: MDA-MB-231, 72 h
B16-F10 [25] = assay: Induction of cell cycle arrest in mouse B16-F10 cells assessed as accumulation of cells at S phase at 125 nM incubated for 24 hrs by RNase/PI staining based flow cytometry analysis (reference value: 12.45%); format: functional
[26] = biological target: HSP90/Cyclin-dependent kinase 6 (Mus musculus, UniProt P07901+P11499+Q64261); assay: HEMTAC activity at HSP90/CDK6 in mouse B16-F10 cells assessed as induction of […] degradation incubated for 24 hrs by Western blot analysis; format: cell-based
[27] = Acute toxicity in zebra fish embryos incubated for 72 hrs; parameters: species or system Danio rerio; settings: zebrafish
A-375 = assay: Cytotoxicity against human A-375 cells assessed as inhibition of cell growth incubated for 72 hrs by CCK-8 assay; format: functional, cell-based; settings: A-375, 72 h
B16-F10 [28] = assay: Induction of apoptosis in mouse B16-F10 cells assessed as dead cells at 250 nM incubated for 48 hrs by Annexin V-FITC/PI staining based flow cytometry analysis (reference value: 1.75%); format: functional

In the case of `COc1c(C)cnc(Cn2cc(C#CCCn3cc(CNC(=O)CN4CCN(c5ccc(Nc6ncc7c(C)c(C(C)=O)c(=O)n(C8CCCC8)c7n6)nc5)CC4)nn3)c3c(Cl)nc(N)nc32)c1C`, the Activity (B16-F10 [1]) is reported as “Active”, the Activity (B16-F10 [2]) is reported as 2.08% and the Activity (B16-F10 [3]) is reported as 74.01%. For the same compound, the inhibition (B16-F10 [4]) was “Active”, the Activity [5] was “Non-Toxic” and the IC50 (B16-F10 [6]) was 0.112 µM. For the same compound, the Activity [7] was “inactive”, the Activity (B16-F10 [8]) was “Active” and the Activity (B16-F10 [9]) was 20.11%. The Activity [10] was “Non-Toxic”, the Activity (B16-F10 [11]) was 18.05% and the Activity [12] was “Active”. For the same compound, the Activity (B16-F10 [13]) was 62.24%, the EC50 [14] was 0.026 µM and the Emax [15] was 88%. For the same compound, the inhibition (B16-F10 [16]) was “Active”, the Activity (B16-F10 [17]) was 15.1% and the Activity [18] was “inactive”. The Activity (B16-F10 [19]) was 11.55%, the Activity (B16-F10 [20]) was 1.77% and the Activity (B16-F10 [21]) was “Active”. For the same compound, the Activity (B16-F10 [22]) was 81.26%, the Emax [23] was 92% and the Activity (B16-F10 [24]) was 16.12%. The IC50 (MDA-MB-231) was 0.313 µM, the Activity (B16-F10 [25]) was 7.58% and the EC50 [26] was 0.019 µM. The LC50 at 72 h [27] was > 100 µM, the IC50 (A-375) was 0.126 µM and the Activity (B16-F10 [28]) was 2.55%.
